A short description of test [1]: Inhibition of FGFR.
Test [2] can be described thus: Inhibition of PDGFR.
For test [3], the target named is Proto-oncogene tyrosine-protein kinase Src (Homo sapiens) (UniProt P12931). The test can be described thus: Inhibition of cSrc.

Molecules are shown by their SMILES.

Chain of Proto-oncogene tyrosine-protein kinase Src (Homo sapiens) (P12931 2-536 limits assumed): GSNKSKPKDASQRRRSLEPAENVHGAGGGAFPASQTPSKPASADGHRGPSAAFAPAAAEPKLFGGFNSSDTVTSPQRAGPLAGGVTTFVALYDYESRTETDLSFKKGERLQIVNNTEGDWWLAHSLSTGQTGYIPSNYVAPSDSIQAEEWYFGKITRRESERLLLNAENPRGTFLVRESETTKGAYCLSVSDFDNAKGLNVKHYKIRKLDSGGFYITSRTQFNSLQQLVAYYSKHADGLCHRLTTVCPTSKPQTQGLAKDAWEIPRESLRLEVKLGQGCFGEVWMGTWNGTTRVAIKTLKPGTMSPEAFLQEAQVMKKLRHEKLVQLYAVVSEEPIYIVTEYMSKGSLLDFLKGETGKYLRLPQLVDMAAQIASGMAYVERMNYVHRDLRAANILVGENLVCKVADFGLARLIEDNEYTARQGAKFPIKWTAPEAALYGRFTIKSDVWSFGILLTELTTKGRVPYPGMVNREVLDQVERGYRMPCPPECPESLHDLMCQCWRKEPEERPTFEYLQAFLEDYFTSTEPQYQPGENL

For `CN(C)c1ncc2cc(-c3c(Cl)cccc3Cl)c(=O)n(C)c2n1`, the log(10^6/IC50) in test [1], in test [2] and in test [3] was 1.3 in each case.
Consider `CN(C)c1cc(-c2cc3cnc(N)nc3nc2NC(=O)NC(C)(C)C)cc(N(C)C)c1`, for which the log(10^6/IC50) is 1.8 in test [1], 1.3 in test [2] and 1.3 in test [3].
In turn, `COc1ccc(NC(=O)Nc2nc3nc(NCCCN4CCN(C)CC4)ncc3cc2-c2c(Cl)cccc2Cl)cc1` returned a log(10^6/IC50) in test [3] of 4.55.
On to `Cn1c(=O)c(-c2c(Cl)cccc2Cl)cc2cncnc21`, for which the log(10^6/IC50) in test [1] was 1.3; in test [2], 1.3; in test [3], 2.
`CN1CCN(c2ccc(Nc3ncc4cc(-c5c(Cl)cccc5Cl)c(=O)n(C)c4n3)cc2)CC1`: the results for the log(10^6/IC50) in test [1], in test [2] and in test [3] were 4.29, 3.94 and 5, respectively.
On the same counts, the results for `CCOc1cc(OCC)cc(-c2cc3cnc(N)nc3nc2NC(=O)NC(C)(C)C)c1` are 2.78, 1.3 and 1.3.
Turning to `CC(C)(C)NC(=O)Nc1nc2nc(N)ncc2cc1-c1cc(C(F)(F)F)cc(C(F)(F)F)c1`, the log(10^6/IC50) in test [1], in test [2] and in test [3] was 1.3 each time.
Turning to `COc1cc(OC)cc(-c2cc3cnc(N)nc3n(C)c2=O)c1`, the log(10^6/IC50) came out at 3.9 in test [1], 1.37 in test [2] and 1.3 in test [3].
On the same counts, the results for `Cc1ncc2cc(-c3c(Cl)cccc3Cl)c(=O)n(C)c2n1` are 1.3, 1.3 and 1.3.
Turning to `Cn1c(=O)c(-c2c(Cl)cccc2Cl)cc2cnc(Nc3ccc(CC(=O)O)cc3)nc21`, the log(10^6/IC50) in test [1] turned out to be 4.21; in test [2] it was 4.15; in test [3], 5.

These data come from ChEMBL document CHEMBL1143173, “2D Autocorrelation, CoMFA, and CoMSIA modeling of protein tyrosine kinases' inhibition by substituted pyrido[2,3-d]pyrimidine derivatives” (Bioorg Med Chem, 2008).
